Source: patent publication US20130244999A1, “Substituted Heterocyclic Compounds” (Incyte Corporation, priority 2008, published 2013)

Each molecule was assayed against T1, histamine H4 receptor (Homo sapiens, UniProt Q9H3N8) (assay: Inhibition of histamine H4 receptor (Table A1; H4 membrane binding assay)). Conditions: not given.
T1 construct: expressed in transfected cells; host or cells: HEK293SFM cells (membrane preparation)
Method in brief: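 Membranes came from recombinant HEK293SFM cells expressing human H4, homogenized in 50 mM Tris-HCl pH 7.5 with protease inhibitors. Nonspecific binding was set with 1000× unlabeled ligand. Bound radioligand was separated on PEI-treated GF/B filters and counted by liquid scintillation.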

T1 sequence (Q9H3N8 whole entry): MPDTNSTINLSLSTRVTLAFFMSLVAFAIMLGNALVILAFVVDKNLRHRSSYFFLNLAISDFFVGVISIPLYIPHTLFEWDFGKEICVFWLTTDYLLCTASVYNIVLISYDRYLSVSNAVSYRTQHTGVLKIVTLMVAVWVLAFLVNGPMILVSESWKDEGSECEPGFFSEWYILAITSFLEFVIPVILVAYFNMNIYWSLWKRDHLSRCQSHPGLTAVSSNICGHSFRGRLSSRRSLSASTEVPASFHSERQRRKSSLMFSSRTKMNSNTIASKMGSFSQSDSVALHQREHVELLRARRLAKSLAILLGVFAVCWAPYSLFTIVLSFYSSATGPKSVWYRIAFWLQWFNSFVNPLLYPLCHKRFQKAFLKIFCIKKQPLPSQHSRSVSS

Question: How did the inhibition at 1 µM turn out when `CC1Cc2ccc(-c3ccn(CCO)n3)cc2CN1c1cc(N2CCN(C)CC2)nc(N)n1` (single isomer, unassigned) [Example 84B, 2-(3-{2-[2-Amino-6-(4-methylpiperazin-1-yl)pyrimidin-4-yl]-3-methyl-1,2,3,4-tetrahydroisoquinolin-7-yl}-1H-pyrazol-1-yl)ethanol] was run?
Answer: 52%

Question: `CC1Cc2ccc(-c3cc(C(=O)NC4CC4)n(C)c3)cc2CN1c1cc(N2CCN(C)CC2)nc(N)n1` (single isomer, unassigned) [Example 91B, 4-{2-[2-Amino-6-(4-methylpiperazin-1-yl)pyrimidin-4-yl]-3-methyl-1,2,3,4-tetrahydroisoquinolin-7-yl}-N-cyclopropyl-1-methyl-1H-pyrrole-2-carboxamide] was tested. Which inhibition at 1 µM did it give?
Answer: 76%

Same assay, conditions: histamine H4 receptor; "> a" = exceeds experiment limit

Question: Which IC50 does the source give for `CCn1cc(-c2ccc3c(c2)CN(c2cc(N4CCN(C)CC4)nc(N)n2)C(C)C3)cn1` (single isomer, unassigned) [Example 107, 4-[7-(1-Ethyl-1H-pyrazol-4-yl)-3-methyl-3,4-dihydroisoquinolin-2(1H)-yl]-6-(4-methylpiperazin-1-yl)pyrimidin-2-amine] here?
Answer: 42 nM

Question: `CC(C)OC(=O)N1CCC(c2ccc3c(c2)CN(c2cc(N4CCN(C)CC4)nc(N)n2)C(C)C3)CC1` (stereo not drawn) [Example 139, Isopropyl 4-{2-[2-amino-6-(4-methylpiperazin-1-yl)pyrimidin-4-yl]-3-methyl-1,2,3,4-tetrahydroisoquinolin-7-yl}piperidine-1-carboxylate] was tested. Which IC50 did it give?
Answer: 54 nM

Question: For `CC1Cc2ccc(C3CCN(C(=O)CC4CCCC4)CC3)cc2CN1c1cc(N2CCN(C)CC2)nc(N)n1` (stereo not drawn) [Example 138, 4-[7-[1-(Cyclopentylacetyl)piperidin-4-yl]-3-methyl-3,4-dihydroisoquinolin-2(1H)-yl]-6-(4-methylpiperazin-1-yl)pyrimidin-2-amine], which IC50 is on record?
Answer: 64 nM

Question: For `CC1Cc2ccc(-c3ccc4c(c3)CN(C3CC3)C4=O)cc2CN1c1cc(N2CCN(C)CC2)nc(N)n1` (stereo not drawn) [Example 129, 5-{2-[2-Amino-6-(4-methylpiperazin-1-yl)pyrimidin-4-yl]-3-methyl-1,2,3,4-tetrahydroisoquinolin-7-yl}-2-cyclopropylisoindolin-1-one], which IC50 is on record?
Answer: 112 nM

Question: With `CN1CCN(c2cc(N3CCc4ccc(N5CCC(C#N)CC5)cc4C3)nc(N)n2)CC1` [Example 36, 1-{2-[2-Amino-6-(4-methylpiperazin-1-yl)pyrimidin-4-yl]-1,2,3,4-tetrahydroisoquinolin-7-yl}piperidine-4-carbonitrile] as the molecule, how does the IC50 read?
Answer: 393 nM

Question: For `CC1Cc2ccc(-c3cnn(CC(N)=O)c3)cc2CN1c1cc(N2CCN(C)CC2)nc(N)n1` (single isomer, unassigned) [Example 113, 2-(4-{2-[2-Amino-6-(4-methylpiperazin-1-yl)pyrimidin-4-yl]-3-methyl-1,2,3,4-tetrahydroisoquinolin-7-yl}-1H-pyrazol-1-yl)acetamide], which IC50 is on record?
Answer: 72 nM

Question: For `CN1CCN(c2cc(N3CCc4ccc(N5CCC(c6ccc(=O)n(C)c6)CC5)cc4C3)nc(N)n2)CC1` [Example 42, 5-(1-{2-[2-Amino-6-(4-methylpiperazin-1-yl)pyrimidin-4-yl]-1,2,3,4-tetrahydroisoquinolin-7-yl}piperidin-4-yl)-1-methylpyridin-2(1H)-one], which IC50 is on record?
Answer: 81 nM

Question: `CC1Cc2ccc(-c3ccc(C(=O)N4CC[C@H](F)C4)nc3)cc2CN1c1cc(N2CCN(C)CC2)nc(N)n1` (single isomer, unassigned) [Example 154A] was tested. Which IC50 did it give?
Answer: 85 nM

Question: Which IC50 does the source give for `CC1Cc2ccc(-c3ccnc(C(=O)N(C)C)c3)cc2CN1c1cc(N2CCN(C)CC2)nc(N)n1` (single isomer, unassigned) [Example 61A, 4-{2-[2-amino-6-(4-methylpiperazin-1-yl)pyrimidin-4-yl]-3-methyl-1,2,3,4-tetrahydroisoquinolin-7-yl}-N,N-dimethylpyridine-2-carboxamide] here?
Answer: 110 nM

Question: For `CC1Cc2ccc(-c3ccnc(C(=O)N4CCN(C)CC4)c3)cc2CN1c1cc(N2CCN(C)CC2)nc(N)n1` (single isomer, unassigned) [Example 70, 4-[3-Methyl-7-{2-[(4-methylpiperazin-1-yl)carbonyl]pyridin-4-yl}-3,4-dihydroisoquinolin-2(1H)-yl]-6-(4-methylpiperazin-1-yl)pyrimidin-2-amine], which IC50 is on record?
Answer: 86 nM

Question: For `CN1CCN(c2cc(N3CCc4ccc(-c5cnc(N6CCNCC6)nc5)cc4C3)nc(N)n2)CC1` [Example 9, 4-(4-Methylpiperazin-1-yl)-6-[7-(2-piperazin-1-yipyrimidin-5-yl)-3,4-dihydroisoquinolin-2(1H)-yl]pyrimidin-2-amine], which IC50 is on record?
Answer: 89 nM

Question: With `CN1CCN(c2cc(N3CCCc4ccc(O)cc43)nc(N)n2)CC1` [Example 21, 1-[2-Amino-6-(4-methylpiperazin-1-yl)pyrimidin-4-yl]-1,2,3,4-tetrahydroquinolin-7-ol] as the molecule, how does the IC50 read?
Answer: 181 nM

Question: Which IC50 does the source give for `CC1Cc2ccc(-c3ccc(C(=O)N4CCC4)nc3)cc2CN1c1cc(N2CCN(C)CC2)nc(N)n1` (single isomer, unassigned) [Example 53B, 4-[7-[6-(azetidin-1-ylcarbonyl)pyridin-3-yl]-3-methyl-3,4-dihydroisoquinolin-2(1H)-yl]-6-(4-methylpiperazin-1-yl)pyrimidin-2-amine] here?
Answer: 176 nM

Question: How did the IC50 turn out when `CC1Cc2ccc(-c3ccnc(C(=O)N4CC(C#N)C4)c3)cc2CN1c1cc(N2CCN(C)CC2)nc(N)n1` (single isomer, unassigned) [Example 63B, 1-[(4-{2-[2-amino-6-(4-methylpiperazin-1-yl)pyrimidin-4-yl]-3-methyl-1,2,3,4-tetrahydroisoquinolin-7-yl}pyridin-2-yl)carbonyl]azetidine-3-carbonitrile] was run?
Answer: 47 nM

Question: `CC1Cc2ccc(-c3cnn(CCC#N)c3)cc2CN1c1cc(N2CCN(C)CC2)nc(N)n1` (single isomer, unassigned) [Example 96A, 3-(4-{2-[2-amino-6-(4-methylpiperazin-1-yl)pyrimidin-4-yl]-3-methyl-1,2,3,4-tetrahydroisoquinolin-7-yl}-1H-pyrazol-1-yl)propanenitrile] was tested. Which IC50 did it give?
Answer: 26 nM

Question: With `CNC(=O)c1ccc(N2CCN(c3ccc4c(c3)CN(c3cc(N5CCN(C)CC5)nc(N)n3)CC4)C(=O)C2)nc1` [Example 44, 6-(4-{2-[2-Amino-6-(4-methylpiperazin-1-yl)pyrimidin-4-yl]-1,2,3,4-tetrahydroisoquinolin-7-yl}-3-oxopiperazin-1-yl)-N-methylnicotinamide] as the molecule, how does the IC50 read?
Answer: 93 nM

Question: With `CC1Cc2ccc(-c3cnn(C)c3)cc2CN1c1cc(N2CCN3CCCC3C2)nc(N)n1` (stereo not drawn) [Example 126, 4-(Hexahydropyrrolo[1,2-a]pyrazin-2(1H)-yl)-6-[3-methyl-7-(1-methyl-1H-pyrazol-4-yl)-3,4-dihydroisoquinolin-2(1H)-yl]pyrimidin-2-amine] as the molecule, how does the IC50 read?
Answer: 66 nM

Question: How did the IC50 turn out when `CN1CCN(c2cc(N3CCc4ccc(C(=O)N5Cc6ccccc6C5)cc4C3)nc(N)n2)CC1` [Example 26, 4-[7-(1,3-Dihydro-2H-isoindol-2-ylcarbonyl)-3,4-dihydroisoquinolin-2(1H)-yl]-6-(4-methylpiperazin-1-yl)pyrimidin-2-amine] was run?
Answer: 244 nM

Question: For `CC1Cc2ccc(-c3cnn(C)c3)cc2CN1c1cc(N2CC3CC2CN3)nc(N)n1` (stereo not drawn) [Example 123, 4-(2,5-Diazabicyclo[2.1.1]hept-2-yl)-6-[3-methyl-7-(1-methyl-1H-pyrazol-4-yl)-3,4-dihydroisoquinolin-2(1H)-yl]pyrimidin-2-amine], which IC50 is on record?
Answer: 124 nM

Question: With `CC1Cc2ccc(-c3cnn(C4CCOCC4)c3)cc2CN1c1cc(N2CCN(C)CC2)nc(N)n1` (single isomer, unassigned) [Example 95A, 4-(4-methylpiperazin-1-yl)-6-[3-methyl-7-[1-(tetrahydro-2H-pyran-4-yl)-1H-pyrazol-4-yl]-3,4-dihydroisoquinolin-2(1H)-yl]pyrimidin-2-amine] as the molecule, how does the IC50 read?
Answer: 35 nM

Question: With `CC1Cc2ccc(-c3ccnc(C(=O)N4CC[C@H](F)C4)c3)cc2CN1c1cc(N2CCN(C)CC2)nc(N)n1` (single isomer, unassigned) [Example 66A] as the molecule, how does the IC50 read?
Answer: 64 nM

Question: `CC1Cc2ccc(-c3cnn(CC4CCCO4)c3)cc2CN1c1cc(N2CCN(C)CC2)nc(N)n1` (single isomer, unassigned) [Example 99B, 4-(4-Methylpiperazin-1-yl)-6-[3-methyl-7-[1-(tetrahydrofuran-2-ylmethyl)-1H-pyrazol-4-yl]-3,4-dihydroisoquinolin-2(1H)-yl]pyrimidin-2-amine] was tested. Which IC50 did it give?
Answer: 172 nM

Question: Which IC50 does the source give for `CCNC(=O)N1CCC(c2ccc3c(c2)CN(c2cc(N4CCN(C)CC4)nc(N)n2)C(C)C3)CC1` (stereo not drawn) [Example 145, 4-{2-[2-Amino-6-(4-methylpiperazin-1-yl)pyrimidin-4-yl]-3-methyl-1,2,3,4-tetrahydroisoquinolin-7-yl}-N-ethylpiperidine-1-carboxamide] here?
Answer: 36 nM

Question: With `CC1Cc2ccc(-c3ccc(C(=O)N4CCN(C)CC4)nc3)cc2CN1c1cc(N2CCN(C)CC2)nc(N)n1` (stereo not drawn) [Example 58, 4-[3-Methyl-7-{6-[(4-methylpiperazin-1-yl)carbonyl]pyridin-3-yl}-3,4-dihydroisoquinolin-2 (1H)-yl]-6-(4-methylpiperazin-1-yl)pyrimidin-2-amine] as the molecule, how does the IC50 read?
Answer: 144 nM

Question: For `Cc1nc(-c2ccc3c(c2)CN(c2cc(N4CCN(C)CC4)nc(N)n2)C(C)C3)cs1` (stereo not drawn) [Example 116, 4-[3-Methyl-7-(2-methyl-1,3-thiazol-4-yl)-3,4-dihydroisoquinolin-2(1H)-yl]-6-(4-methylpiperazin-1-yl)pyrimidin-2-amine], which IC50 is on record?
Answer: 20 nM

Question: Which IC50 does the source give for `CN1CCN(c2cc(N3CCc4ccc(Oc5ccccc5Cl)cc4C3)nc(N)n2)CC1` [Example 17, 4-[7-(2-Chlorophenoxy)-3,4-dihydroisoquinolin-2(1H)-yl]-6-(4-methylpiperazin-1-yl)pyrimidin-2-amine] here?
Answer: 285 nM

Question: `CNC(=O)c1ccc(-c2ccc3c(c2)CN(c2cc(N4CCN(C)CC4)nc(N)n2)C(C)C3)cn1` (single isomer, unassigned) [Example 49A] was tested. Which IC50 did it give?
Answer: 45 nM

Question: How did the IC50 turn out when `CCn1ccc(-c2ccc3c(c2)CN(c2cc(N4CCN(C)CC4)nc(N)n2)C(C)C3)n1` (single isomer, unassigned) [Example 86A, 4-[7-(1-Ethyl-1H-pyrazol-3-yl)-3-methyl-3,4-dihydroisoquinolin-2(1H)-yl]-6-(4-methylpiperazin-1-yl)pyrimidin-2-amine] was run?
Answer: 40 nM
